For nine molecules, IC50 results are on record in BindingDB's records for doi:10.1016/S0960-894X(01)80103-7 (1994).

A word on the IC50: it is the point on the concentration scale where inhibition reaches its midpoint. Read a high IC50 as a need for much substance.

The nature of assay [1]: In vitro thromboxane receptor antagonist activity was determined by inhibition of U-46619 induced aggregation of washed human platelets.
Experiment in assay [2]: as above
This is another data set of the same source.

Experiment in assay [3]: as above
The source holds these as a separate data set.

Regarding `O=C(O)CCC/C=C\C[C@@H]1[C@@H](c2cccnc2)SC[C@H]1OCc1ccc(-c2ccccc2)cc1` [(Z)-7-[(2S,3S,4S)-4-(Biphenyl-4-ylmethoxy)-2-pyridin-3-yl-tetrahydro-thiophen-3-yl]-hept-5-enoic acid], in assay [1], the IC50 is 228 nM.

Consider `O=C(O)CC/C=C\CC[C@H]1[C@@H](OCc2ccc(-c3ccccc3)cc2)CS[C@@H]1c1cccnc1` [(Z)-7-[(2S,3S,4R)-4-(Biphenyl-4-ylmethoxy)-2-pyridin-3-yl-tetrahydro-thiophen-3-yl]-hept-4-enoic acid], for which the IC50 in assay [1] was 46 nM.

Take `O=C(O)CC/C=C\CC[C@@H]1[C@@H](N2CCCCC2)[C@@H](O)C[C@@H]1OCc1ccc(-c2ccccc2)cc1` [GR 32191]: it took 12 nM to reach half-maximal inhibition in assay [1] (IC50).

Consider `O=C(O)CC/C=C\CC[C@@H]1[C@@H](c2cccnc2)S(=O)(=O)C[C@H]1OCc1ccc(-c2ccccc2)cc1` [(Z)-7-[(2S,3S,4S)-4-(Biphenyl-4-ylmethoxy)-1,1-dioxo-2-pyridin-3-yl-tetrahydro-1lambda*6*-thiophen-3-yl]-hept-4-enoic acid], for which the IC50 in assay [1] amounted to 18 nM.

`O=C(O)CC/C=C\CC[C@@H]1[C@@H](c2cccnc2)[S@@+]([O-])C[C@H]1OCc1ccc(-c2ccccc2)cc1` gave an IC50 in assay [1] of 105 nM.

Turning to `O=C(O)CC/C=C\CC[C@H]1[C@@H](OCc2ccc(-c3ccccc3)cc2)C[S+]([O-])[C@@H]1c1cccnc1` (stereo partly drawn) [(Z)-7-[(2S,3S,4R)-4-(Biphenyl-4-ylmethoxy)-1-oxo-2-pyridin-3-yl-tetrahydro-1lambda*4*-thiophen-3-yl]-hept-4-enoic acid], in assay [1], the IC50 came to 57 nM. This IC50 lies about 1.8-fold lower than the previous one.

Take `O=C(O)CC/C=C\CC[C@@H]1[C@@H](c2cccnc2)SC[C@H]1OCc1ccc(-c2ccccc2)cc1` [(Z)-7-[(2S,3S,4S)-4-(Biphenyl-4-ylmethoxy)-2-pyridin-3-yl-tetrahydro-thiophen-3-yl]-hept-4-enoic acid]: the IC50 in assay [2] worked out at 22 nM; in assay [3], 46 nM.

In turn, `O=C(O)CC/C=C\CC[C@H]1[C@@H](OCc2ccc(-c3ccccc3)cc2)CS(=O)(=O)[C@@H]1c1cccnc1` [(Z)-7-[(2S,3S,4R)-4-(Biphenyl-4-ylmethoxy)-1,1-dioxo-2-pyridin-3-yl-tetrahydro-1lambda*6*-thiophen-3-yl]-hept-4-enoic acid] yielded an IC50 in assay [1] of 24 nM.

Molecule `O=C(O)CC/C=C\CC[C@@H]1[C@@H](c2cccnc2)[S@+]([O-])C[C@H]1OCc1ccc(-c2ccccc2)cc1` had an IC50 in assay [1] of 77 nM.
